# Experimental data reported in patent publication US6916815B2, “C-6 modified indazolylpyrrolotriazines” (Bristol-Myers Squibb Company, priority 2002, dated 2005).
# Counter-ions that a name gives are not always drawn.
structure (smiles),measurement,value
"CCc1c(NC(=O)OC[C@@H]2COCCN2)cn2ncnc(Nc3ccc4c(cnn4Cc4ccccc4)c3)c12 (as salt: hydrochloride) [Example 1, [5-ethyl-4-[[(1-phenylmethyl)-1H-indazol-5-yl]amino]pyrrolo[2,1-f][1,2,4]triazin-6-yl]-carbamic acid, (3S)-3-morpholinylmethyl ester]",melting point,> 300 °C
